According to patent US8299209B2, “Pharmaceutical composition comprising cyclic somatostatin analogues” (Novartis AG, priority 2003, dated 2012):
Numbered stars: 1 amine (or outer) side, 2 acyl side, 3 side chain; on linkers, the order of the positions; unused ones are H or OH. Square brackets hold non-standard residues; d marks the D form. Side chains are listed from the residue outwards. Peptide text beside a SMILES is read from it. * marks the point of attachment. ξ: configuration not given here. Ethylenediamine = C(CN[*:2])N[*:1]; dPhg = N[C@@H](C(=O)O)c1ccccc1; ξHyp = O=C(O)C1CC(O)CN1; CO = O=C([*:1])[*:2]; Bn = c1ccc(C*)cc1

Columns and labels:
hsst5 = target: T1, hsst5 (Homo sapiens, UniProt P35346); test: competition binding assay on membranes of cells expressing hsst5; details: IC50 value in the nMolar range
T1 construct: expressed in transfected cells
T1 sequence (P35346 whole entry): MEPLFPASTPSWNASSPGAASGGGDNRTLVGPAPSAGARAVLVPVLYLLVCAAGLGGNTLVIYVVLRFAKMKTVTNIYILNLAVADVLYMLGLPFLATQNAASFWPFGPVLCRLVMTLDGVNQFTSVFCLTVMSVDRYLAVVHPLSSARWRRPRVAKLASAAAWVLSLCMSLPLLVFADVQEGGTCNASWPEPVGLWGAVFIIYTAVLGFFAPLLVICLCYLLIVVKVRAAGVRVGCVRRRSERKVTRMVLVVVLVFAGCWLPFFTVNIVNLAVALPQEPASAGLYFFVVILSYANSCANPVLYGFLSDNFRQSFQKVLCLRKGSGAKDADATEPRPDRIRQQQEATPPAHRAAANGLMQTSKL
Experimental: (§1) The experiments are carried out in triplicate.

hsst1 = hsst1 (Homo sapiens, UniProt P30872)
hsst1, sequence (P30872 whole entry): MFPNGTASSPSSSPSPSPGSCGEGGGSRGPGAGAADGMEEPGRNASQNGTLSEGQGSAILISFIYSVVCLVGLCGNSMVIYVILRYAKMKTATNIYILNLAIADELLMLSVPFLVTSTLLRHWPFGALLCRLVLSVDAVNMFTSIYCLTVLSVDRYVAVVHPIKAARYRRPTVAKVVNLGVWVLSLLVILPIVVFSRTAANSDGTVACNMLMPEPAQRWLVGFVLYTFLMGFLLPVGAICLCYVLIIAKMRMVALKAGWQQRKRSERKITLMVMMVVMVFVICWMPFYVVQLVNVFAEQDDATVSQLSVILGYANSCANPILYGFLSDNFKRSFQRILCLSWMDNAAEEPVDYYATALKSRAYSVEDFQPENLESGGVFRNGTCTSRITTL
Experimental: The binding assays may be carried out as disclosed hereunder using membranes from cell lines expressing selectively and stably hsst1, hsst2, hsst3, hsst4 or hsst5, e.g. CHO or COS cells.
Membranes prepared from hsst selective cell lines, e.g. CHO or COS cells stably expressing hsst1 or hsst2 or hsst3 or hsst4 or hsst5 are incubated in triplicate in a total volume of 300 μl at 22° C. for 30 min with increasing concentrations of [^125I-Tyr^11]-SRIF-14 in 10 mmol/l Hepes buffer (pH 7.6) containing 0.5% BSA. The incubation is terminated by rapid filtration and the filters are counted in a counter. Specific binding is total binding minus non-specific binding in the presence of 1 μmol/l somatostatin-14. The experiments are carried out in triplicate. The affinity constant (KD) and number of binding sites are calculated using appropriate statistics and graphical programs.

hsst2 = target: T2, hsst2 (Homo sapiens, UniProt P30874); test: competition binding assay on membranes of cells expressing hsst2
T2 construct: expressed in transfected cells
T2 sequence (P30874 whole entry): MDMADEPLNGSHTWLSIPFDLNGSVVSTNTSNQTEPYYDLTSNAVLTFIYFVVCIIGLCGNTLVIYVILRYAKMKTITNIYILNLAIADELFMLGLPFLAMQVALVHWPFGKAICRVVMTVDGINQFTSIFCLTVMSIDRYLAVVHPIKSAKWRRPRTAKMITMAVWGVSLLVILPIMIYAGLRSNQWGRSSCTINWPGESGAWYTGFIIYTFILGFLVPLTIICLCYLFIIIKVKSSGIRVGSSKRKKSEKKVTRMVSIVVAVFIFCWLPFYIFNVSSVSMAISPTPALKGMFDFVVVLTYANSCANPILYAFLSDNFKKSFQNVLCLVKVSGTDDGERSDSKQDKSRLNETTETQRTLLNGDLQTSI
Experimental: as §1

hsst3 = target: T3, hsst3 (Homo sapiens, UniProt P32745); test: competition binding assay on membranes of cells expressing hsst3
T3 construct: expressed in transfected cells
T3 sequence (P32745 whole entry): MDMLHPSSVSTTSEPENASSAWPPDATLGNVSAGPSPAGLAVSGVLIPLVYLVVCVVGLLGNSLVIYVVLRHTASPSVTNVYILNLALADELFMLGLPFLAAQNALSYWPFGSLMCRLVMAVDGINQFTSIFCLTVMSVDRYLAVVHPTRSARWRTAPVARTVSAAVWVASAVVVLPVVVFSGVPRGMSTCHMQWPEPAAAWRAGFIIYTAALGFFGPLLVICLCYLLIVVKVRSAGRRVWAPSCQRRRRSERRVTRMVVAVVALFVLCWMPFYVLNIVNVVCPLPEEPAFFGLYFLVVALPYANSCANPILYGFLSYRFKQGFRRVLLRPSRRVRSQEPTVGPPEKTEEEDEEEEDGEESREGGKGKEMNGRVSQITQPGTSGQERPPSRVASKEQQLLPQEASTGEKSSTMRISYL
Experimental: as §1

growth hormone release = test: inhibition of growth hormone (GH) release in rats; format: in vivo, rat; details: s.c. to anaesthetized rats
Experimental: Compound B is administered s.c. to anaesthetized rats. Blood is collected after decapitation 1 h after administration of the compound. The duration of action is estimated on the basis of the inhibition of basal GH secretion 6 h after drug treatment. Hormone levels are measured by RIA 1 h and 6 h after treatment. The ID50-value for the inhibition of the hormone secretion is determined graphically (log-probit) for each experiment and the resulting values are averaged logarithmically.

cultured pituitary cells = test: inhibition of GH release in vitro from cultured pituitary cells; format: cell-based; details: rat anterior pituitary cells, three hours, 3×10^−10 M growth hormone releasing factor
Experimental: For example, anterior pituitary glands from adult male rats are cut into small pieces and dispersed using 0.1% trypsin in 20 mM HEPES buffer. The dispersed cells are cultured for four days in MEM (Gibco) supplemented with 5% fetal calf serum, 5% horse serum, 1 mM NaHCO3, 2.5 nM dexamethasone, 2.5 mg/ml insulin and 20 U/ml Pen/Strep. On the day of the experiment the attached cells are washed two times with Krebs-Ringer medium buffered with 20 mM HEPES and supplemented with 5 mM glucose and 0.2% BSA. […] The amount of growth hormone released into the medium is measured by RIA.

[1] = storage stability of the composition; format: physicochemical; details: in the composition of the invention
Experimental: For example, less than 2.5% of degradation products were found after 4 weeks storage at 60° C. For example, if stored with light protection at 2° C. to 8° C., the compositions of the invention are stable over 24 months.

| stability (in words) [1] | Molecule | binding affinity towards hsst5 (in words) (hsst5) | binding affinity towards hsst1 (in words) (hsst1) | binding affinity towards hsst2 (in words) (hsst2) | binding affinity towards hsst3 (in words) (hsst3) | inhibition of growth hormone release in vivo (growth hormone release) | inhibition of GH release in vitro (cultured pituitary cells) |
| --- | --- | --- | --- | --- | --- | --- | --- |
| – | NCCCC[C@@H]1NC(=O)[C@@H](Cc2c[nH]c3ccccc23)NC(=O)[C@@H](c2ccccc2)NC(=O)C2CC(OC(=O)NCCN)CN2C(=O)[C@H](Cc2ccccc2)NC(=O)[C@H](Cc2ccc(OCc3ccccc3)cc2)NC1=O (stereo partly drawn) [Compound B, cyclo[{4-(NH2—C2H4—NH—CO—O—)Pro}-DPhg-DTrp-Lys-Tyr(4-Bzl)-Phe]] (cyclo([ξHyp]([CO-Ethylenediamine])[dPhg][dW]KY(Bn)F)) | good binding affinity | no significant binding affinity | no significant binding affinity | low binding affinity | inhibits growth hormone release | GH-release inhibiting activity |
| Particularly good stability | cyclo[{4-(NH2—C2H4—NH—CO—O—)Pro}-Phg-DTrp-Lys-Tyr(4-Bzl)-Phe] [diaspartate salt of Compound A] | – | – | – | – | – | – |
